# Measured values published in patent US8637550B2, “Heteroaryl diamide compounds useful as MMP-13 inhibitors” (Boehringer Ingelheim International GmbH, priority 2008, dated 2014).
# Biological target: MMP-13 (Homo sapiens, UniProt P45452)
# Experiment: EnzoLyte 520 Generic MMP Assay Kit, 5-FAM/QXL520 FRET peptide substrate
# Type: biochemical
# From the text: The EnzoLyte™ 520 Generic MMP Assay Kit (AnaSpec Inc.) can detect the activity of several MMPs including MMP-1, 2, 3, 7, 8, 9, 13, and 14. This kit uses a 5-FAM/QXL™520 fluorescence resonance energy transfer (FRET) peptide as an MMP substrate.
row,Compound,IC50
1,CNC(=O)[C@@H](NC(=O)c1ccc(-c2cccc(CNC(=O)c3ccc(C)cc3)c2)o1)C(C)C [5-{3-[(4-Methyl-benzoylamino)-methyl]-phenyl}-furan-2-carboxylic acid ((S)-2-methyl-1-methylcarbamoyl-propyl)-amide],175 nM
2,CNC(=O)[C@@H](NC(=O)c1ccc(-c2cccc(CNC(=O)C3CCCCC3)c2)o1)C(C)C [5-{3-[(Cyclohexanecarbonyl-amino)-methyl]-phenyl}-furan-2-carboxylic acid ((S)-2-methyl-1-methylcarbamoyl-propyl)-amide],165 nM
3,CNC(=O)[C@@H](NC(=O)c1ccc(-c2cccc(CNC(=O)c3cccc(Cl)n3)c2)o1)C(C)C [6-Chloro-N-[3-(5-{[(1S)-2-methyl-1-(methylcarbamoyl)propyl]carbamoyl}-2-furyl)benzyl]pyridine-2-carboxamide],2 nM
4,CNC(=O)[C@@H](NC(=O)c1ccc(-c2cccc(CNC(=O)c3cccc(F)n3)c2)o1)C(C)C [6-Fluoro-N-[3-(5-{[(1S)-2-methyl-1-(methylcarbamoyl)propyl]carbamoyl}-2-furyl)benzyl]pyridine-2-carboxamide],2 nM
5,CNC(=O)[C@@H](NC(=O)c1ccc(-c2ccc(NC(=O)c3cccc(C)n3)cc2)o1)C(C)C [6-Methyl-N-[4-(5-{[(2S)-3-methyl-1-(methylamino)-1-oxobutan-2-yl]carbamoyl}furan-2-yl)phenyl]pyridine-2-carboxamide],14 nM
6,CNC(=O)[C@@H](NC(=O)c1ccc(-c2ccc(NC(=O)OC)cc2)o1)C1CCCCC1 [Methyl [4-(5-{[(1S)-1-cyclohexyl-2-(methylamino)-2-oxoethyl]carbamoyl}furan-2-yl)phenyl]carbamate],225 nM
7,CNC(=O)[C@@H](NC(=O)c1ccc(-c2cccc(CNC(=O)c3cccc(C)n3)c2)o1)C1CCCCC1 [N-[3-(5-{[(1S)-1-cyclohcxyl-2-(methylamino)-2-oxoethyl]carbamoyl}furan-2-yl)benzyl]-6-methylpyridine-2-carboxamide],4 nM
8,CNC(=O)[C@@H](NC(=O)c1ccc(-c2cccc(CNC(=O)c3ccn(C)n3)c2)o1)C1CCCCC1 [N-[3-(5-{[(1S)-1-cyclohexyl-2-(methylamino)-2-oxoethyl]carbamoyl}furan-2-yl)benzyl]-1-methyl-1H-pyrazole-3-carboxamide],24 nM
9,CNC(=O)[C@@H](NC(=O)c1ccc(-c2cccc(CNC(=O)c3ccnn3C)c2)o1)C1CCCCC1 [N-[3-(5-{[(1S)-1-cyclohexyl-2-(methylamino)-2-oxoethyl]carbamoyl}furan-2-yl)benzyl]-1-methyl-1H-pyrazole-5-carboxamide],143 nM
10,CNC(=O)[C@@H](NC(=O)c1ccc(-c2cccc(CNC(=O)c3occc3C)c2)o1)C1CCCCC1 [N-[3-(5-{[(1S)-1-cyclohexyl-2-(methylamino)-2-oxoethyl]carbamoyl}furan-2-yl)benzyl]-3-methylfuran-2-carboxamide],180 nM
11,"CNC(=O)[C@@H](NC(=O)c1ccc(-c2cccc(CNC(=O)c3cn4c(C)cccc4n3)c2)o1)C1CCCCC1 [N-[3-(5-{[(1S)-1-cyclohexyl-2-(methylamino)-2-oxoethyl]carbamoyl}furan-2-yl)benzyl]-5-methylimidazo[1,2-a]pyridine-2-carboxamide]",110 nM
12,CNC(=O)[C@@H](NC(=O)c1ccc(-c2cccc(CNC(=O)c3cncc(C)c3)c2)o1)C1CCCCC1 [N-[3-(5-{[(1S)-1-cyclohexyl-2-(methylamino)-2-oxoethyl]carbamoyl}furan-2-yl)benzyl]-5-methylpyridine-3-carboxamide],30 nM
13,CNC(=O)[C@@H](NC(=O)c1ccc(-c2cccc(CNC(=O)c3ccccn3)c2)o1)C1CCCCC1 [N-[3-(5-{[(1S)-1-cyclohexyl-2-(methylamino)-2-oxoethyl]carbamoyl}furan-2-yl)benzyl]pyridine-2-carboxamide],9 nM
14,CNC(=O)[C@@H](NC(=O)c1ccc(-c2cccc(CNC(=O)c3cccc(C(F)(F)F)n3)c2)o1)C1CCOCC1 [N-[3-(5-{[(1S)-2-(methylamino)-2-oxo-1-(tetrahydro-2H-pyran-4-yl)ethyl]carbamoyl}-2-furyl)benzyl]-6-(trifluoromethyl)pyridine-2-carboxamide],2 nM
15,CNC(=O)[C@@H](NC(=O)c1ccc(-c2cccc(CNC(=O)c3cc4ccccc4o3)c2)o1)C(C)C [N-[3-(5-{[(1S)-2-methyl-1-(methylcarbamoyl)propyl]carbamoyl}-2-furyl)benzyl]-1-benzofuran-2-carboxamide],8 nM
16,CNC(=O)[C@@H](NC(=O)c1ccc(-c2cccc(CNC(=O)c3nc4ccccc4[nH]3)c2)o1)C(C)C [N-[3-(5-{[(1S)-2-methyl-1-(methylcarbamoyl)propyl]carbamoyl}-2-furyl)benzyl]-1H-benzimidazole-2-carboxamide],33 nM
17,CNC(=O)[C@@H](NC(=O)c1ccc(-c2cccc(CNC(=O)C3CNCCO3)c2)o1)C(C)C (stereo partly drawn) [N-[3-(5-{[(1S)-2-methyl-1-(methylcarbamoyl)propyl]carbamoyl}-2-furyl)benzyl]morpholine-2-carboxamide],370 nM
18,CNC(=O)[C@@H](NC(=O)c1ccc(-c2cccc(CNC(=O)c3cccnc3)c2)o1)C(C)C [N-[3-(5-{[(1S)-2-methyl-1-(methylcarbamoyl)propyl]carbamoyl}-2-furyl)benzyl]nicotinamide],355 nM
19,CNC(=O)[C@@H](NC(=O)c1ccc(-c2cccc(CNC(=O)C3CCCCN3)c2)o1)C(C)C (stereo partly drawn) [N-[3-(5-{[(1S)-2-methyl-1-(methylcarbamoyl)propyl]carbamoyl}-2-furyl)benzyl]piperidine-2-carboxamide],270 nM
20,CNC(=O)[C@@H](NC(=O)c1ccc(-c2cccc(CNC(=O)C3CCCNC3)c2)o1)C(C)C (stereo partly drawn) [N-[3-(5-{[(1S)-2-methyl-1-(methylcarbamoyl)propyl]carbamoyl}-2-furyl)benzyl]piperidine-3-carboxamide],430 nM
21,CNC(=O)[C@@H](NC(=O)c1ccc(-c2cccc(CNC(=O)c3cccnn3)c2)o1)C(C)C [N-[3-(5-{[(1S)-2-methyl-1-(methylcarbamoyl)propyl]carbamoyl}-2-furyl)benzyl]pyridazine-3-carboxamide],420 nM

# The next lines start with the values.
row,IC50,Compound
1,27 nM,CNC(=O)[C@@H](NC(=O)c1ccc(-c2cccc(CNC(=O)c3cccc(Br)n3)c2)o1)C1CC1 [6-Bromo-N-[3-(5-{[(1S)-1-cyclopropyl-2-(methylamino)-2-oxoethyl]carbamoyl}-2-furyl)benzyl]pyridine-2-carboxamide]
2,24 nM,"CNC(=O)[C@@H](NC(=O)c1ccc(-c2ccc(NC(=O)c3cn4cc(C(N)=O)ccc4n3)cc2)o1)C1CCCCC1 [Imidazo[1,2-a]pyridine-2,6-dicarboxylic acid 6-amide 2-[(4-{5-[((S)-cyclohexyl-methylcarbamoyl-melhyl)-carbamoyl]-furan-2-yl}-phenyl)-amide]]"
3,72 nM,"CNC(=O)[C@@H](NC(=O)c1ccc(-c2cccc(CNC(=O)c3cc(C)n(C)n3)c2)o1)C1CCCCC1 [N-[3-(5-{[(1S)-1-cyclohexyl-2-(methylamino)-2-oxoethyl]carbamoyl}furan-2-yl)benzyl]-1,5-dimethyl-1H-pyrazole-3-carboxamide]"
4,11 nM,CNC(=O)[C@@H](NC(=O)c1ccc(-c2cccc(CNC(=O)c3cc4ccccc4o3)c2)o1)C1CCCCC1 [N-[3-(5-{[(1S)-1-cyclohexyl-2-(methylamino)-2-oxoethyl]carbamoyl}furan-2-yl)benzyl]-1-benzofuran-2-carboxamide]
5,313 nM,CNC(=O)[C@@H](NC(=O)c1ccc(-c2cccc(CNC(=O)c3nccn3C)c2)o1)C1CCCCC1 [N-[3-(5-{[(1S)-1-cyclohexyl-2-(methylamino)-2-oxoethyl]carbamoyl}furan-2-yl)benzyl]-1-methyl-1H-imidazole-2-carboxamide]
6,7 nM,CNC(=O)[C@@H](NC(=O)c1ccc(-c2cccc(CNC(=O)c3ccnc(C(F)(F)F)n3)c2)o1)C1CCCCC1 [N-[3-(5-{[(1S)-1-cyclohexyl-2-(methylamino)-2-oxoethyl]carbamoyl}furan-2-yl)benzyl]-2-(trifluoromethyl)pyrimidine-4-carboxamide]
7,123 nM,CNC(=O)[C@@H](NC(=O)c1ccc(-c2cccc(CNC(=O)c3cc(C)n[nH]3)c2)o1)C1CCCCC1 [N-[3-(5-{[(1S)-1-cyclohexyl-2-(methylamino)-2-oxoethyl]carbamoyl}furan-2-yl)benzyl]-3-methyl-1H-pyrazole-5-carboxamide]
8,103 nM,CNC(=O)[C@@H](NC(=O)c1ccc(-c2cccc(CNC(=O)c3ncccc3C)c2)o1)C1CCCCC1 [N-[3-(5-{[(1S)-1-cyclohexyl-2-(methylamino)-2-oxoethyl]carbamoyl}furan-2-yl)benzyl]-3-methylpyridine-2-carboxamide]
9,38 nM,CCc1ccnc(C(=O)NCc2cccc(-c3ccc(C(=O)N[C@H](C(=O)NC)C4CCCCC4)o3)c2)c1 [N-[3-(5-{[(1S)-1-cyclohexyl-2-(methylamino)-2-oxoethyl]carbamoyl}furan-2-yl)benzyl]-4-ethylpyridine-2-carboxamide]
10,137 nM,"CNC(=O)[C@@H](NC(=O)c1ccc(-c2cccc(CNC(=O)c3cn4ccc(C)cc4n3)c2)o1)C1CCCCC1 [N-[3-(5-{[(1S)-1-cyclohexyl-2-(methylamino)-2-oxoethyl]carbamoyl}furan-2-yl)benzyl]-7-methylimidazo[1,2-a]pyridine-2-carboxamide]"
11,2 nM,CNC(=O)[C@@H](NC(=O)c1ccc(-c2cccc(CNC(=O)c3ccnc(C(F)(F)F)n3)c2)o1)C1CCOCC1 [N-[3-(5-{[(1S)-2-(methylamino)-2-oxo-1-(tetrahydro-2H-pyran-4-yl)ethyl]carbamoyl}-2-furyl)benzyl]-2-(trifluoromethyl)pyrimidine-4-carboxamide]
12,305 nM,CNC(=O)[C@@H](NC(=O)c1ccc(-c2cccc(CNC(=O)C3CCCN3)c2)o1)C(C)C (stereo partly drawn) [N-[3-(5-{[(1S)-2-methyl-1-(methylcarbamoy)propyl]carbamoyl}-2-furyl)benzyl]prolinamide]
13,32 nM,CNC(=O)[C@@H](NC(=O)c1ccc(-c2cccc(CNC(=O)c3cnccn3)c2)o1)C(C)C [N-[3-(5-{[(1S)-2-methyl-1-(methylcarbamoyl)propyl]carbamoyl}-2-furyl)benzyl]pyrazine-2-carboxamide]
